For the experiment, the system named is green peach aphids (Myzus persicae). Nature of the experiment: Pesticidal activity against green peach aphid on cabbage plants after soil treatment. The settings on record: for % Control at DAT of 21 days: Table 6; for % Control at DAT of 21 days / % Control at DAT of 28 days: GEROPON SDS 384 ppm. Type of experiment: in vivo. As to the method: Each tested compositions was prepared by mixing a predetermined amount of the CLOSER® SC insecticide (a sulfoxaflor concentrate having a sulfoxaflor concentration of 240 g/L) with a predetermined amount of sodium dioctylsulfosuccinate GEROPON® SDS anionic surfactant in an aqueous medium.
The compositions containing different amounts of sulfoxaflor and sodium dioctylsulfosuccinate GEROPON® SDS surfactant were prepared as shown in TABLE 4. For example, the “Sulfoxaflor at 100 ppm” composition contained about 0.043% weight of sulfoxaflor based on the total weight of the composition (i.e., 100 ppm of sulfoxaflor per one gram of final soil mixture). “Sulfoxaflor at 100 ppm+GEROPON®” composition contained about 0.043% weight of sulfoxaflor based on the total weight of the composition (i.e., 100 ppm of sulfoxaflor per one gram of final soil mixture), and about 0.225% weight of sodium dioctylsulfosuccinate GEROPON® SDS surfactant based on the total weight of the composition (i.e., 384 ppm per one gram of the final soil mixture; 1500 ppm per one gram of the total soil liquid).
The imidacloprid pesticide PROVADO® 1.6 from Bayer CropScience LP (North Carolina, USA) was used as a standard commercial pesticidal composition for aphid control. The imidacloprid pesticide PROVADO® 1.6 was tested at three different loadings: 100 ppm, 25 ppm, and 6.25 ppm per gram of final soil mixture. In this EXAMPLE 6, water was tested as a control composition. Furthermore, an aqueous solution of sodium dioctylsulfosuccinate GEROPON® SDS anionic surfactant was tested.
Cabbage plants (Brassica oleracea capitata L) of uniform size (two new leaf stage) infested with green peach aphids (Myzus persicae) (“GPA”) were used as the study models according to the following procedure:
Cabbage seeds were planted in 3-inch pots containing a peat-based METRO MIX 360® potting soil available from SUN GRO® Horticulture Canada, Ltd. The seeds were propagated in greenhouse zone G4, located in the R&D building of Dow AgroSciences (Indianapolis, Ind., USA), at 26° C. with a relative humidity of 53%. Natural light was supplemented with 1,000-watt metal halide overhead lamps with an average illumination of about 500 μE/m^2·s photosynthetic active radiation for 16 consecutive hours each day.
Each of the 1-ounce clear cups was filled with about 30 grams of the inoculated Midwest field soil having the components as shown in TABLE 5. […] The soil moisture of the Midwest field soil was about 15% as measured by Mettler LJ16 Moisture Analyzer (15 minutes and 100° C.).
The Midwest field soil in each selected 1-ounce cup was treated with about 9 mL of the selected composition using a 10 mL pipette. Deionized water was used as a control. The remainders of the 1-ounce cups were capped, and a small hole was poked into each lid to provide air flow. The remainders of the 1-ounce cups were stored in a controlled environment at 26° C. and covered with a black plastic bag to prevent any light from entering, until being used for the test.
Cabbage plants were gently removed from the 3-inch pots, and the plant roots were washed with water to remove any excess soil. Then, the cabbage plant was transplanted into the 1-ounce cup containing the treated Midwest field soil (one cabbage plant per one 1-ounce cup). The plants were watered as needed after being transplanted.
At the selected number of days after treating the Midwest field soil with the composition (i.e., numbers of days after the soil treatment, “DAT”), the cabbage plant in each 1-ounce cup was infested with GPA by placing a piece of squash leaf infested with about 25 aphids on each cabbage plant. The plants were then placed in a controlled environment at 26° C. for three days.
Five different evaluation times were performed: DAT of 0, 7, 14, 21, or 28 days. For example, for the DAT of zero (0) day, the cabbage plant was infested with GPA on the same day that it was transplanted into the treated Midwest field soil. […]

[1] abbreviates: dose rate: sulfoxaflor 6.25 ppm, combination 6.25 + 384 ppm.
Setting [2] is: Table 7, dose rate: sulfoxaflor 6.25 ppm, combination 6.25 + 384 ppm.
Where [3] appears, read: Table 8, dose rate: sulfoxaflor 25 ppm, combination 25 + 384 ppm.

As for `CCCCCCCCOC(=O)CC(C(=O)OCCCCCCCC)S(=O)(=O)O.[Na]` (stereo not shown) [GEROPON ® SDS Surfactant, Sodium dioctyl sulfosuccinate], under “FIG. 6, cabbage in treated Midwest soil, counted three days after infestation, loading as named in the composition”, the “number of live GPA aphids at DAT of 21 days” value was in the range of 30 to 40. Further, the “% Control at DAT of 21 days” value under setting [1] came to 0%. The “% Control at DAT of 28 days” value runs as follows: under setting [2], 0%; under setting [3], 0%.

`C[C@@H](c1ccc(C(F)(F)F)nc1)[S@](C)(=O)=NC#N` (racemic) [Sulfoxaflor, [methyl(oxo) {1-[6-(trifluoromethyl)-3-pyridyl]ethyl}-λ^6-sulfanylidene]cyanamide, reference compound]: the “% Control at DAT of 21 days” value under setting [1] is on record as 0%. Further, the “% Control at DAT of 28 days” value reads like this: under setting [2], 0%; under setting [3], 36.39%.

The values are drawn from patent US20180125074A1, “PESTICIDAL COMPOSITIONS AND RELATED METHODS” (priority 2015, published 2018).
